Test results as given in patent US11470828B2, “Rodent model of mood disorders” (REGENERON PHARMACEUTICALS, INC., priority 2019, dated 2022).
Values joined by “and” are separate entries in the source; they are usually repeats but may differ in a detail not shown here. Equal values may be shown once. Read-outs that look alike come from different tables or passages of the source.

Test system: GPR156^E533D/E533D mice
Conditions: for Effect on impaired swim phenotype (ability to perform 6-minute swim test): GPR156^E533D/E533D mice, Fluoxetine 10 mg/kg i.p. daily for 9 weeks
Method: Mice were placed in a 5 liter clear plastic beaker (25×18 cm diameter) filled with 4 liters of 23-25° C. tap water to ensure mice cannot touch the bottom of the flask even with their tail. Four animals were recorded simultaneously using an ANY-maze™ video-tracking system (Stoelting Co.). Data were recorded for 6 minutes. Flask were separated by 3 sided white plastic partitions (40 cm high×25 cm wide). Swim test was recorded for 6 minutes. Recordings were set up to start automatically if there was motion in the flask so that recorded times are specific for each individual mouse.
The 6 minutes recording was broken into three time segments (0-100 seconds, 101-200 second and last […]) to get a better sampling of behaviors across time.
Main data points analyzed for the FST were swim time, time mobile, time immobile, speed, distance traveled, rearing in the swim zone, mobile episodes and immobile episodes. Immobility is defined as 60% of total body mass being immobile for 2 seconds. This parameter allows for small movements of hind legs and feet to maintain balance and or to tread water without be considered actively swimming.
Mice were tested for a 6 minute forced swim test weekly before and after daily treatment with intraperitoneal injection of Fluoxetine 10 mg/kg for […]. Total time of swim test seconds) before and after daily treatment with Fluoxetine was recorded. […] Data were expressed as mean±SEM for each animal group.
To test whether Fluoxetine could reverse the impaired swim test phenotype, GPR156^hum/hum and GPR156^E533D/E533D mice were treated with Fluoxetine 10 mg/kg (i.p) daily for 6 days/week for 9 weeks. […] Therefore, mice were subjected to a swim test (baseline) and animals able to perform the 6 minutes swim test were excluded from the study. The remaining mice were then split into 2 groups, treated and untreated with Fluoxetine.
For this study, mice were subjected to a swim test (baseline) and animals able to perform the 6 minutes swim test were excluded from the study.

With `CNCCC(Oc1ccc(C(F)(F)F)cc1)c1ccccc1` (stereo not drawn) [Fluoxetine] the “Percentage of mice achieving the swim test” value (GPR156^E533D/E533D mice (0/13 at baseline), Fluoxetine 10 mg/kg i.p. daily 6 days/week, after 9 weeks, males and females combined) was 53% and 61%, the “Effect on impaired swim phenotype (ability to perform 6-minute swim test)” value was “improves the impaired swim phenotype” and the “Effect on impaired swim phenotype (ability to perform 6-minute swim test)” value (listed as fluoxetine) was “improved on their ability to perform the swim test”. For the same molecule, the “Percentage of females able to successfully perform the 6 minutes swim test” value (female mice homozygous for E533D, Fluoxetine 10 mg/kg i.p. daily, after 4 weeks (5 out of 10)) was 50%, the “Percentage of GPR156^E533D/E533D mice that achieved the test” value (following 4-9 weeks of treatment with Fluoxetine 10 mg/kg, i.p., daily, none able prior to treatment) was “Fluoxetine (10 mg/kg, i.p., daily), 53%” and the “Percentage of males able to successfully perform the 6 minutes swim test” value (male mice homozygous for E533D, Fluoxetine 10 mg/kg i.p. daily, after 4 weeks (5 out of 8)) was 62.5%.
